For one compound, Activity results are on record in ChEMBL document CHEMBL1147275, “An Antibiotic from Trichoderma Koningii Active Against Soilborne Plant Pathogens” (1989).

Holding throughout (type): functional
The test system of experiment [1] is Gaeumannomyces tritici. Description: Antimicrobial activity of broth culture isolated compound against Gaeumannomyces graminis var. tritici assessed as colony area after 2 days.
Experiment [2] concerns Gaeumannomyces tritici. Description: Antimicrobial activity of broth culture isolated compound against Gaeumannomyces graminis var. tritici assessed as colony area after 3 days.
Experiment [3] deals with Gaeumannomyces tritici. The experiment in a line: Antimicrobial activity of broth culture isolated compound against Gaeumannomyces graminis var. tritici assessed as colony area after 4 days.
Experiment [4] concerns Gaeumannomyces tritici. Description: Antimicrobial activity of broth culture isolated compound against Gaeumannomyces graminis var. tritici assessed as colony area after 5 days.
For experiment [5], the system named is Gaeumannomyces tritici. The experiment in a line: Antimicrobial activity of broth culture isolated compound against Gaeumannomyces graminis var. tritici assessed as colony area after 6 days.
The test system of experiment [6] is Gaeumannomyces tritici. The experiment in a line: Antimicrobial activity of agar culture isolated compound against Gaeumannomyces graminis var. tritici assessed as colony area after 1 day.
Experiment [7] concerns Gaeumannomyces tritici. The experiment in a line: Antimicrobial activity of agar culture isolated compound against Gaeumannomyces graminis var. tritici assessed as colony area after 2 days.
Experiment [8] deals with Gaeumannomyces tritici. Description: Antimicrobial activity of agar culture isolated compound against Gaeumannomyces graminis var. tritici assessed as colony area after 3 days.
Experiment [9] has as its system Rhizoctonia solani. The experiment in a line: Antimicrobial activity of agar culture isolated compound against Rhizoctonia solani assessed as colony area after 1 day.
For experiment [10], the system named is Rhizoctonia solani. The experiment in a line: Antimicrobial activity of agar culture isolated compound against Rhizoctonia solani assessed as colony area after 2 days.
For experiment [11], the system named is Rhizoctonia solani. Description: Antimicrobial activity of agar culture isolated compound against Rhizoctonia solani assessed as colony area after 3 days.
In experiment [12] the test system is Phytophthora cinnamomi. Description: Antimicrobial activity of agar culture isolated compound against Phytophthora cinnamomi assessed as colony area after 1 day.
Experiment [13] deals with Phytophthora cinnamomi. Description: Antimicrobial activity of agar culture isolated compound against Phytophthora cinnamomi assessed as colony area after 2 days.
Experiment [14] concerns Phytophthora cinnamomi. Description: Antimicrobial activity of agar culture isolated compound against Phytophthora cinnamomi assessed as colony area after 3 days.
In experiment [15] the test system is Globisporangium middletonii. The experiment in a line: Antimicrobial activity of agar culture isolated compound against Pythium middletonii assessed as colony area after 1 day.
Experiment [16] deals with Globisporangium middletonii. Description: Antimicrobial activity of agar culture isolated compound against Pythium middletonii assessed as colony area after 2 days.
Experiment [17] relates to Globisporangium middletonii. Description: Antimicrobial activity of agar culture isolated compound against Pythium middletonii assessed as colony area after 3 days.
The subject of experiment [18] is Fusarium oxysporum. Description: Antimicrobial activity of agar culture isolated compound against Fusarium oxysporum assessed as colony area after 1 day.
Experiment [19] deals with Fusarium oxysporum. Description: Antimicrobial activity of agar culture isolated compound against Fusarium oxysporum assessed as colony area after 2 days.
Experiment [20] deals with Fusarium oxysporum. Description: Antimicrobial activity of agar culture isolated compound against Fusarium oxysporum assessed as colony area after 3 days.
In experiment [21] the test system is Bipolaris sorokiniana. Description: Antimicrobial activity of agar culture isolated compound against Bipolaris sorokiniana assessed as colony area after 1 day.
Experiment [22] concerns Bipolaris sorokiniana. The experiment in a line: Antimicrobial activity of agar culture isolated compound against Bipolaris sorokiniana assessed as colony area after 2 days.
Experiment [23] relates to Bipolaris sorokiniana. Description: Antimicrobial activity of agar culture isolated compound against Bipolaris sorokiniana assessed as colony area after 3 days.

As for `CCCCCC[C@H](O)[C@@H]1C[C@@H](O)C2=C(O1)[C@H](O)CCC2=O`, the Activity with Gaeumannomyces tritici [1] was 32 mm2; in the experiment on Gaeumannomyces tritici [2], 33 mm2; in the experiment on Gaeumannomyces tritici [3], 63 mm2; in the experiment on Gaeumannomyces tritici [4] it was 198 mm2; with Gaeumannomyces tritici [5], 549 mm2; in the experiment on Gaeumannomyces tritici [6], 40 mm2. The Activity in the experiment on Gaeumannomyces tritici [7] turned out to be 42 mm2; in the experiment with Gaeumannomyces tritici [8], 44 mm2; in the experiment on Rhizoctonia solani [9], 38 mm2; in the experiment with Rhizoctonia solani [10], 42 mm2; in the experiment on Rhizoctonia solani [11] it was 46 mm2; in the experiment with Phytophthora cinnamomi [12], 37 mm2. Also, the Activity in the experiment with Phytophthora cinnamomi [13] was found to be 38 mm2; with Phytophthora cinnamomi [14] it was 92 mm2; in experiment [15] it was 38 mm2; in experiment [16], 184 mm2; in [17], 232 mm2; with Fusarium oxysporum [18] it was 46 mm2. The Activity in the experiment on Fusarium oxysporum [19] amounted to 103 mm2; in the experiment with Fusarium oxysporum [20], 170 mm2; in the experiment on Bipolaris sorokiniana [21], 44 mm2; in the experiment with Bipolaris sorokiniana [22] it was 46 mm2; in the experiment on Bipolaris sorokiniana [23], 45 mm2.
